Reference: patent publication US20240415801A1, “Methods and Compositions for Treating Fibroids” (Lundquist Institute for Biomedical Innovation at …, priority 2023, published 2024)

Experiments:
[1] = tested on: leiomyoma smooth muscle cells (LSMC); experiment: 3D spheroid culture of leiomyoma smooth muscle cells, qRT-PCR (Example 2); format: cell-based, human; settings: 3D cultured LSMC, 5 μM, 24 h
Experimental: Leiomyoma smooth muscle cells (LSMC) were cultured in DMEM supplemented with 10% fetal bovine serum until reaching confluence with a change of media every 2-3 days. Cells at passages p1 to p3 were used for all experiments. Isolated LSMC were plated in 6-well plates (1.5×10^5 cells/well) which were coated with 0.5% agarose gel and incubated 48 hours for spheroid formation with size ranging from 50 μm to 250 μm in diameter (1). For blocking IκBα phosphorylation and nuclear translocation of NFκB, LSMC spheroids were treated with 5 μM of Bay 11-7082 (Cayman Chemical, Ann Arbor, Michigan) for 24 hours. […]
Total RNA was extracted from the xenografts using TRIzol (Thermo Fisher Scientific Inc., Waltham, MA). RNA concentration and integrity was determined using a Nanodrop 2000c spectrophotometer (Thermo Scientific, Wilmington, DE) and Agilent 2100 Bioanalyzer (Agilent Technologies, Santa Clara, CA) as previously described (7, 8). […] Quantitative RT-PCR was carried out using SYBR gene expression master mix (Applied Biosystems). […] The expression levels of selected genes were quantified using Invitrogen StepOne System with FBXW2 (F-box and WD repeat domain containing 2) used for normalization (9). All reactions were run in triplicate and relative mRNA expression was determined using the comparative cycle threshold method (2−ΔΔCq), as recommended by the supplier (Applied Biosystems). […]

[2] = tested on: fibroid xenografts; experiment: Quantitative RT-PCR of xenografts (Example 2); format: in vivo, SCID/Beige mice; settings: 5 mg/kg, 8 weeks, n=13
Experimental: Total RNA was extracted from the xenografts using TRIzol (Thermo Fisher Scientific Inc., Waltham, MA). RNA concentration and integrity was determined using a Nanodrop 2000c spectrophotometer (Thermo Scientific, Wilmington, DE) and Agilent 2100 Bioanalyzer (Agilent Technologies, Santa Clara, CA) as previously described (7, 8). Briefly, 2 μg of RNA was reverse transcribed using random primers for selected genes according to the manufacturer's guidelines (Applied Biosystems, Carlsbad, CA). Quantitative RT-PCR was carried out using SYBR gene expression master mix (Applied Biosystems). Reactions were incubated for 10 min at 95° C. followed by 40 cycles for 15 seconds at 95° C. and 1 min at 60° C. The expression levels of selected genes were quantified using Invitrogen StepOne System with FBXW2 (F-box and WD repeat domain containing 2) used for normalization (9). All reactions were run in triplicate and relative mRNA expression was determined using the comparative cycle threshold method (2−ΔΔCq), as recommended by the supplier (Applied Biosystems). Values were expressed as fold change compared to the control group. […]

SMILES: Cc1ccc(S(=O)(=O)/C=C/C#N)cc1 [Bay 11-7082]
- expression of IL8, TGFB3, Col3A1, CDK2, CCND1, DNMT1 and DNMT3A [1]: significant decrease
- mRNA expression of COL1A1, COL3A1, FN1, TGF-β3, CCND1, CDK2, E2F1, EZH2, MyD88 and SPARC [2]: significant decrease
